Data as given in patent US4313943A, “7-Chloro-2,3-dihydro-5-phenyl-1-propargyl-1H-1,4-benzodiazepine-2-one, and a pharmaceutical composition thereof” (priority 1972, dated 1982).
Entries after “also recorded” stand apart in the source; their conditions may differ.

Assays:
[1] = Potentiation of narcotic effect of Veronal; conditions: in vivo
[2] = Cortical and hippocampal arousal thresholds on stimulation of MRF, median thalamus and posterior hypothalamus; format: in vivo; conditions: 7.5 mg/kg intragastric
Experimental: The test animals in this study were prepared by the techniques described by Monnier and Gangloff under the preceding study (infra B, page 30). Stimulation consisted of a series of waves delivered at a frequency of 200 c/sec., lasting 0.3 m sec., with a total duration of the stimulus being 5 sec. These shocks were delivered by a Neurovar neurostimulator (Alvar Electronic) coupled with a CRC cathode oscilloscope (type OC 343). Cerebral electrical activity was recorded on a REEGA MINI HUIT electroencephalograph (Alvar Electronic). The test animals were kept in restraint cages in a relatively soundproof room.
The activity of compounds 1 and 4 was tested in a series of six test animals for each compound, with a single dose of 7.5 mg/kg administered by the intragastric route. In each animal, the arousal threshold was determined for two of the three structures tested so that for each compound, each of the three structures stimulated were tested four times.
In making the baseline tracing, the threshold voltage was determined by a finding that the duration of the arousal reaction produced by the 5-second stimulation exceeded the duration of the stimulation by at least 5 seconds, that is, for a minimum of 10 seconds.
The various thresholds were determined every 45 minutes after administration of the compounds, for a total period of four and one-half hours.
The critical value for raising of a threshold was fixed at 0.1 volts. This constituted the maximum variation recorded during 41/2 hours in the control animals.
The results were taken in two forms and then summarized. In the first result, each animal was observed, yielding the values for the thresholds recorded at each time interval as well as the ratios of the values obtained in each of the stimulated structures.

[3] = Posterior hypothalamus stimulation

| Structure (SMILES) | narcotic effect of a minimal dose of Veronal [1] | effect on arousal pathways (in words) [2] | % of Mean Variation of arousal threshold, Cortex ([2]; MRF stimulation) | % of Mean Variation of arousal threshold, Hippocampus ([2]; MRF stimulation) | % of Mean Variation of arousal threshold, Cortex ([2]; Median Thalamus stimulation) | % of Mean Variation of arousal threshold, Hippocampus ([2]; Median Thalamus stimulation) | % of Mean Variation of arousal threshold, Cortex ([2]; Posterior Hippocampus) | % of Mean Variation of arousal threshold, Hippocampus [2, 3] |
| --- | --- | --- | --- | --- | --- | --- | --- | --- |
| C#CCN1C(=O)CN=C(c2ccccc2Cl)c2cc(Cl)ccc21 [Compound 4, 7-chloro-2,3-dihydro-5-(2-chlorophenyl)-1-propargyl-1,H-1,4-benzodiazepine-2-one] | potentiate the narcotic effect of a minimal dose of Veronal | substantially raised the cortical and hippocampal arousal thresholds following stimulation of the reticular formation of the brain stem; also recorded: posterior hypothalamus appeared to be little affected; also recorded: moderately reduced in duration | +311% | +308% | +67% | +67% | +56% | +60% |
| C#CCN1C(=O)CN=C(c2ccccc2)c2cc(Cl)ccc21 [Compound 1, 7-chloro-2,3-dihydro-5-phenyl-1-propargyl-1H-1,4-benzodiazepin-2-one] | potentiate the narcotic effect of a minimal dose of Veronal | preferentially reduces the excitability of the hypothalamo-cortical and hippocampal pathways; also recorded: moderately reduced in duration | +57% | +50% | +67% | +73% | +83% | +78% |
